≈ marks a conversion by molar mass, not a printed value. Positions of bridges follow the written chain, without caps; N, C: chain ends. Non-standard residues stand in square brackets, D forms with d. Residues, ends and D or L forms follow the SMILES beside them. *: point of attachment. Tetradecanoyl(3R-OH) = CCCCCCCCCCC[C@@H](O)CC(=O)*; Asp(3S-OH) = N[C@H](C(=O)O)[C@H](O)C(=O)O; Thr(4-Cl) = N[C@H](C(=O)O)[C@H](O)CCl; aThr = C[C@H](O)[C@H](N)C(=O)O; dDab = NCC[C@@H](N)C(=O)O; Dab = NCC[C@H](N)C(=O)O; Dhb = C/C=C(\N)C(=O)O
Legend:
[1] = system: Cryptococcus neoformans; experiment: Lowest concentration required to inhibit 90-100% in vitro growth of Cryptococcus neoformans
[2] = system: Candida albicans; experiment: Lowest concentration required to inhibit 90-100% in vitro growth of Candida albicans; type: functional
[3] = system: Aspergillus fumigatus; experiment: Lowest concentration required to inhibit 90-100% in vitro growth of Aspergillus fumigatus; type: functional
[4] = species on record: Mus musculus; experiment: Ratio of the drug concentration required to achieve 50% survival of fungal infection compared with untreated animals to that of ED50 of PSB; type: functional
[5] = system: Mus musculus; experiment: Tail vein toxicity at 20 mg/kg dose was determined in mice;Positive; type: functional, organism-based; set-up: dose 20 mg/kg
[6] = species on record: Mus musculus; experiment: Ratio of the drug concentration required to achieve 50% survival of fungal infection compared with untreated animals to that of ED50 of PSB;value in range of 2-7; type: functional

SMILES | MIC [1] [µg/mL] | MIC [2] [µg/mL] | MIC [3] [µg/mL] | Ratio [4] | Toxicity [5] | Ratio [6]
C/C=C1\NC(=O)[C@H]([C@@H](C)O)NC(=O)[C@H](CCN)NC(=O)[C@H](CCCCN)NC(=O)[C@H](CC(=O)OC)NC(=O)[C@@H](CCN)NC(=O)[C@@H](NC(=O)C[C@@H](O)CCCCCCCCCCCCCCC)COC(=O)[C@H]([C@H](O)CCl)NC(=O)[C@H]([C@H](O)C(=O)OC)NC1=O | 1.25 (≈ 0.968 µM) | 5 (≈ 3.87 µM) | 20 (≈ 15.5 µM) | >20 |  | 
C/C=C1\NC(=O)[C@H]([C@@H](C)O)NC(=O)[C@H](CCNC(=O)OCOC(=O)C(C)(C)C)NC(=O)[C@H](CCCCNC(=O)OCOC(=O)C(C)(C)C)NC(=O)[C@H](CC(=O)O)NC(=O)[C@@H](CCNC(=O)OCOC(=O)C(C)(C)C)NC(=O)[C@@H](NC(=O)C[C@@H](O)CCCCCCCCCCC)COC(=O)[C@H]([C@H](O)CCl)NC(=O)[C@H]([C@H](O)C(=O)O)NC1=O | > 20 | > 20 | > 20 | 6.4 |  | 
C/C=C1\NC(=O)[C@H]([C@@H](C)O)NC(=O)[C@H](CCNC(=O)OCOC(=O)C(C)C)NC(=O)[C@H](CCCCNC(=O)OCOC(=O)C(C)C)NC(=O)[C@H](CC(=O)O)NC(=O)[C@@H](CCNC(=O)OCOC(=O)C(C)C)NC(=O)[C@@H](NC(=O)C[C@@H](O)CCCCCCCCCCC)COC(=O)[C@H]([C@H](O)CCl)NC(=O)[C@H]([C@H](O)C(=O)O)NC1=O | > 20 | > 20 | > 20 | 11.4 |  | 
C/C=C1/NC(=O)[C@H]([C@@H](C)O)NC(=O)[C@H](CCNC(=O)OCOC(=O)C(C)(C)C)NC(=O)[C@H](CCCCNC(=O)OCOC(=O)C(C)(C)C)NC(=O)[C@H](CC(=O)O)NC(=O)[C@@H](CCNC(=O)OCOC(=O)C(C)(C)C)NC(=O)[C@@H](NC(=O)C[C@@H](O)CCCCCCCCCCCCCCC)COC(=O)[C@H]([C@H](O)CCl)NC(=O)[C@H]([C@H](O)C(=O)O)NC1=O | > 20 | > 20 | > 20 | >20 |  | 
C/C=C1\NC(=O)[C@H]([C@H](C)O)NC(=O)[C@H](CCN)NC(=O)[C@H](CCCCN)NC(=O)[C@H](CC(=O)O)NC(=O)[C@@H](CCN)NC(=O)[C@@H](NC(=O)C[C@H](O)CCCCCCCCCCC)COC(=O)[C@H]([C@H](O)CCl)NC(=O)[C@H]([C@H](O)C(=O)O)NC1=O [PSEUDOMYCIN B] ({Tetradecanoyl(3R-OH)}-S[dDab]DK[Dab][aThr][Dhb][Asp(3S-OH)][Thr(4-Cl)]; ester 1-C) | 0.039 (≈ 0.0323 µM) | 0.625 (≈ 0.517 µM) | 20 (≈ 16.6 µM) |  | Positive | 7
C/C=C1\NC(=O)[C@H]([C@@H](C)O)NC(=O)[C@H](CCN)NC(=O)[C@H](CCCCN)NC(=O)[C@H](CC(=O)O)NC(=O)[C@@H](CCN)NC(=O)[C@@H](NC(=O)C[C@H](O)CCCCCCCCCCCCCCC)COC(=O)[C@H]([C@H](O)CCl)NC(=O)[C@H]([C@H](O)C(=O)O)NC1=O | 0.02 (≈ 0.0158 µM) | 1.25 (≈ 0.989 µM) | 5 (≈ 3.96 µM) | >20 |  | 
C/C=C1\NC(=O)[C@H]([C@H](C)O)NC(=O)[C@H](CCN)NC(=O)[C@H](CCCCN)NC(=O)[C@H](CC(=O)O)NC(=O)[C@@H](CCN)NC(=O)[C@@H](NC(=O)C[C@H](O)CCCCCCCCCCCCCCC)COC(=O)[C@H]([C@H](O)CCl)NC(=O)[C@H]([C@H](O)C(=O)O)NC1=O | 0.01 (≈ 0.00791 µM) | 0.625 (≈ 0.495 µM) | 5 (≈ 3.96 µM) | >20 | Positive | 
C/C=C1\NC(=O)[C@H]([C@@H](C)O)NC(=O)[C@H](CCNC(=O)OCc2oc(=O)oc2C)NC(=O)[C@H](CCCCNC(=O)OCc2oc(=O)oc2C)NC(=O)[C@H](CC(=O)O)NC(=O)[C@@H](CCNC(=O)OCc2oc(=O)oc2C)NC(=O)[C@@H](NC(=O)C[C@@H](O)CCCCCCCCCCC)COC(=O)[C@H]([C@H](O)CCl)NC(=O)[C@H]([C@H](O)C(=O)O)NC1=O | > 20 | > 20 | > 20 | 7.8 |  | 
C/C=C1\NC(=O)[C@H]([C@@H](C)O)NC(=O)[C@H](CCNC(=O)OCc2oc(=O)oc2C)NC(=O)[C@H](CCCCNC(=O)OCc2oc(=O)oc2C)NC(=O)[C@H](CC(=O)O)NC(=O)[C@@H](CCNC(=O)OCc2oc(=O)oc2C)NC(=O)[C@@H](NC(=O)C[C@@H](O)CCCCCCCCCCCCCCC)COC(=O)[C@H]([C@H](O)CCl)NC(=O)[C@H]([C@H](O)C(=O)O)NC1=O | > 20 | > 20 | > 20 | >19 |  | 
C/C=C1\NC(=O)[C@H]([C@@H](C)O)NC(=O)[C@H](CCN)NC(=O)[C@H](CCCCN)NC(=O)[C@H](CC(=O)NC2CC2)NC(=O)[C@@H](CCN)NC(=O)[C@@H](NC(=O)C[C@@H](O)CCCCCCCCCCC)COC(=O)[C@H]([C@H](O)CCl)NC(=O)[C@H]([C@H](O)C(=O)O)NC1=O | < 0.01 | 0.156 (≈ 0.125 µM) | > 20 | <5 |  | 
C/C=C1\NC(=O)[C@H]([C@@H](C)O)NC(=O)[C@H](CCN)NC(=O)[C@H](CCCCN)NC(=O)[C@H](CC(=O)OC)NC(=O)[C@@H](CCN)NC(=O)[C@@H](NC(=O)C[C@@H](O)CCCCCCCCCCC)COC(=O)[C@H]([C@H](O)CCl)NC(=O)[C@H]([C@H](O)C(=O)OC)NC1=O | 0.01 (≈ 0.00809 µM) | 2.5 (≈ 2.02 µM) | 20 (≈ 16.2 µM) | 7.8 |  | 
C/C=C1\NC(=O)[C@H]([C@@H](C)O)NC(=O)[C@H](CCN)NC(=O)[C@H](CCCCN)NC(=O)[C@H](CC(=O)NCCN(C)C)NC(=O)[C@@H](CCN)NC(=O)[C@@H](NC(=O)C[C@@H](O)CCCCCCCCCCC)COC(=O)[C@H]([C@H](O)CCl)NC(=O)[C@H]([C@H](O)C(=O)O)NC1=O | < 0.01 | 0.156 (≈ 0.122 µM) | 5 (≈ 3.91 µM) | <5 |  | 
C/C=C1\NC(=O)[C@H]([C@@H](C)O)NC(=O)[C@H](CCNC(=O)OCOC(=O)C(C)C)NC(=O)[C@H](CCCCNC(=O)OCOC(=O)C(C)C)NC(=O)[C@H](CC(=O)O)NC(=O)[C@@H](CCNC(=O)OCOC(=O)C(C)C)NC(=O)[C@@H](NC(=O)C[C@@H](O)CCCCCCCCCCCCCCC)COC(=O)[C@H]([C@H](O)CCl)NC(=O)[C@H]([C@H](O)C(=O)O)NC1=O | > 20 | > 20 | > 20 | >14 |  | 

— ChEMBL document CHEMBL1134745, “Synthesis and evaluation of novel pseudomycin side-chain analogues. Part 3” (2001)
